Structures can show the parent of a compound that is named as a salt.
Experiments:
[1] = tested on: subjects undergoing bunionectomy; experiment: Safety: treatment-emergent adverse events, SAEs, AESIs, vital signs, EKG through POD14, clinical trial #1; type: in vivo, human
Source text: Safety assessments included monitoring of AEs from the time of randomization through POD 14. Safety endpoints include incidence of treatment-emergent AEs and SAEs from the start of the nerve block procedure through POD 14.
Safety endpoints included incidence of treatment emergent adverse events (AEs) and serious adverse events (SAEs) from start of the nerve block procedure through POD14.
Adverse event verbatim terms are mapped to preferred terms and related system organ class using the Medical Dictionary for Regulatory Activities (MedDRA). Events that start prior to the start of study drug administration are identified in a by-subject listings. Incidence rates of TEAEs and the proportion of subject prematurely withdrawn from the study due to a TEAE is shown for each treatment arm. […] Incidence rates of SAEs is shown for each treatment arm.
An AE that occurred after administration of the study treatment was considered a treatment-emergent adverse event (TEAE). A continuous AE with varying grades of severity was to be recorded as 1 AE. The highest grade of severity experienced by that subject during the course of the continuous AE was to be recorded.
General guidelines are provided below: • Unrelated: A causal relationship between the study drug and the AE could be easily ruled out (e.g., based on the temporal sequence, absence of a reasonable pathophysiological mechanism, or direct evidence of actual cause). • Unlikely: A clinical event with a temporal relationship to study drug administration that made a causal relationship improbable and in which other drugs, chemicals, or underlying disease provided a plausible explanation. • Possible: A clinical event with a reasonable time sequence to administration of the study drug but that could also be explained by a concurrent disease or other drugs or chemicals. • Probable: A clinical event with a reasonable time sequence to administration of the study drug unlikely to be attributed to a concurrent disease or other drugs or chemicals and that followed a clinically reasonable response on withdrawal (dechallenge). • Definite: The pharmacological properties of the study drug(s) or of the substance class, and the course of the AE after dechallenge and, if applicable, after rechallenge, and/or specific test indicated involvement of the study drug(s) in the occurrence/worsening of the AE, and no indication of other causes existed.
Based on review of all peripheral nerve blocks, the following conditions were considered to be Adverse Events of Special Interest (AESIs) upon review of the AEs: • Falls • Persistent tingling • Persistent numbness • Persistent weakness • Hypersensitivity • Seizures • Tremors • Dizziness • Hematoma formation • Cardiovascular depression • Dyspnea • Cardiovascular arrest • Altered sensorium • Visual disturbances • Local anesthetic systemic toxicity
However, death, in and of itself, was not an AE; it was an outcome. The cause of death was the AE.

[2] = tested on: subjects undergoing bunionectomy; experiment: Postsurgical opioid consumption, opioid-free subjects and time to first opioid rescue, clinical trial #1; type: in vivo, human
Experimental: Clinical Study #1 was a Phase 3, multicenter, randomized, double-blind, active-controlled study in 180 subjects undergoing bunionectomy. Subjects received a sciatic (in the popliteal fossa) nerve block with a single dose of either […] 266 mg ([…] 133 mg (EXP133), or 0.25% bupivacaine HCl (50 mg; BUP50). The study was conducted in two parts (Part A and Part B). Part A was to be completed and analyzed before enrollment in Part B was initiated. Part A was a 3-arm cohort with 66 subjects undergoing bunionectomy to obtain information on pharmacokinetics (PK), pharmacodynamics (PD), efficacy, and safety. Subjects were randomized (1:1:1) to the EXP266, EXP133, and BUP50 treatment arms. Part B was a 2-arm cohort with 119 subjects undergoing bunionectomy to evaluate the efficacy and safety of […] compared with bupivacaine HCl. The dose of the […] arm in Part B was determined based on the interim analysis of the Part A cohort results. On the day of surgery, subjects received an ultrasound-guided sciatic (in the popliteal fossa) nerve block with one of the following treatments: • EXP266 arm: subjects randomized to this treatment arm received 20 mL (266 mg) […] mixed with 10 mL saline (Part A only; per interim analysis was not selected for Part B) • EXP133 arm: subjects randomized to this treatment arm received 10 mL (133 mg) […] mixed with 20 mL saline (Part A and B) • BUP50 arm: subjects randomized to this treatment arm received 20 mL (50 mg) 0.25% bupivacaine HCl mixed with 10 mL saline (Part A and B) Postsurgical pain for breakthrough pain. An unscheduled pain intensity assessment using the NRS (measured as “On a scale from 0 to 10, where 0 equals no pain and 10 equals the worst possible pain, how much pain are you experiencing in your operative foot right now?”) was to be completed immediately prior to administration of any breakthrough pain medication up to 96 h post-surgery. Medications were administered PRN; opioids were not to be given on a pre-determined schedule. […] All postsurgical analgesics administered, were to be recorded through hospital discharge. […]

[3] = EXP266 Part A, EXP133 and BUP50 Part A+B

CCCCN1CCCCC1C(=O)Nc1c(C)cccc1C (stereo not drawn) [BUP50, bupivacaine HCl]
subjects with a clinically significant abnormal EKG finding ([1]; EXP133 on POD2, BUP50 on POD1): 1 subject
subjects with treatment-emergent SAEs related to study drug ([1]; EXP266: hypertension and pyrexia, BUP50: atrioventricular block second degree, both discontinued): 1 subject
proportion of subjects with a treatment-related TEAE [1, 3]: 2.4%
subjects that had SAEs ([1]; EXPAREL (266 mg), bupivacaine HCl): 1 subject
AESI of atrioventricular block second degree considered possibly related to study drug ([1]; human, in vivo): 1 subject
AESI of muscular weakness considered possibly related to study drug ([1]; human, in vivo): 1 subject
TEAE constipation, subjects ([1]; human, in vivo): 31.7%
TEAE nausea, subjects ([1]; human, in vivo): 23.2%
number of subjects with ≥1 TEAE related to study drug ([1]; human, in vivo): 2 subjects
subjects who had ≥1 AESI ([1]; human, in vivo): 4 subjects
subjects with a moderate TEAE ([1]; human, in vivo): 12.2%
proportion of subjects who reported TEAEs ([1]; through POD14): 54.9%
estimate of the proportion of opioid-free subjects ([2]; 0 to 96 h post-surgery, EXP266 Part A, EXP133 and BUP50 Part A+B): 9.8%
proportion of subjects who received opioid breakthrough medication [2, 3]: 90.2%
median time to first rescue medication ([2]; post-surgery, Kaplan-Meier): 20.68 h
